For one compound, EC50 and IC50 results are on record in ChEMBL document CHEMBL1130871, “Korundamine A, a novel HIV-inhibitory and antimalarial "hybrid" naphthylisoquinoline alkaloid heterodimer from Ancistrocladus korupensis” (Bioorg Med Chem Lett, 1998).

Converted amounts (≈) assume the structure as drawn.

For experiment [1], the system named is Human immunodeficiency virus 1. Put plainly: Compound was tested for inhibition of cytopathic effects against human immunodeficiency virus type 1 (HIV-1). It is filed as functional, organism-based. A general note: Damage to the host cells serves as the signal in cytopathic effect assays.
Experiment [2] relates to CCRF-CEM. As to the kind of experiment: Compound was tested for anti HIV-1 activity against CEM-SS/OC100 cell/virus strain. Format: functional, cell-based. The conditions noted are these: Homo sapiens.
The species named for experiment [3] is Homo sapiens. As to the kind of experiment: Compound was tested for anti HIV-1 activity against MT2/A17 cell/virus strain. It is filed as functional, organism-based.
Experiment [4] is filed under the species Homo sapiens. Put plainly: Compound was tested for anti HIV-1 activity against MT2/G9106 cell/virus strain. Format: functional, organism-based.
Experiment [5] deals with Plasmodium falciparum. As to the kind of experiment: In vitro antimalarial activity against Plasmodium falciparum. It is filed as functional, organism-based.

`COc1c2c(cc(O)c1-c1cc(-c3cc(-c4c(O)cc(O)c5c4C[C@@H](C)N[C@@H]5C)c4cc(C)cc(OC)c4c3O)c(O)c3c(OC)cc(C)cc13)C[C@@H](C)N=C2C`: the EC50 (as a rule, the midpoint of the concentration-response curve) in experiment [1] is 2 µM; in experiment [2] it was 8 µM; in experiment [3] it was 10 µM; in experiment [4] it was 6 µM. Also, the midpoint of inhibition in experiment [5], the IC50, lay at 1.1 mg/L (≈ 1.43 µM).
